Experimental findings from ChEMBL document CHEMBL1138774, “Potent and selective ketoamide-based inhibitors of cysteine protease, cathepsin K” (J Med Chem, 2004) are described below.

What is called IC50 is the concentration needed to halve the response being measured.

For assay [1], the target named is Cathepsin (B and K) (Homo sapiens) (UniProt P43235+P07858). Put plainly: Selectivity for human cathepsin B over human cathepsin K. The class given is protein assay.
A further assay addresses T1, Cathepsin K (Homo sapiens, UniProt P43235).
T1 sequence (P43235 whole entry): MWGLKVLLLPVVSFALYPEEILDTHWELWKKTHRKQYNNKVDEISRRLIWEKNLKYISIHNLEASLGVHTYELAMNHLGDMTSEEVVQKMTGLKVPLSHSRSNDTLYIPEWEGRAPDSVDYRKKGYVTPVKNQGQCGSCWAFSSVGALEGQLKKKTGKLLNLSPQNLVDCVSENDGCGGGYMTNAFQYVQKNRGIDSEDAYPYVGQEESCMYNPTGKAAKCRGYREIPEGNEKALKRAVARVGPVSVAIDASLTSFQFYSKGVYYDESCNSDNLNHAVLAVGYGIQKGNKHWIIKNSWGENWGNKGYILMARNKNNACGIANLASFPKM
Kind of assay: Inhibitory potency against human Cathepsin K.

Assay [2] deals with Cathepsin (V and K) (Homo sapiens) (UniProt P43235+O60911). Put plainly: Selectivity for human cathepsin V over human cathepsin K. The class given is protein assay.
Sequence of Cathepsin (V and K) (Homo sapiens) (O60911 whole entry, looked up, one chain of several): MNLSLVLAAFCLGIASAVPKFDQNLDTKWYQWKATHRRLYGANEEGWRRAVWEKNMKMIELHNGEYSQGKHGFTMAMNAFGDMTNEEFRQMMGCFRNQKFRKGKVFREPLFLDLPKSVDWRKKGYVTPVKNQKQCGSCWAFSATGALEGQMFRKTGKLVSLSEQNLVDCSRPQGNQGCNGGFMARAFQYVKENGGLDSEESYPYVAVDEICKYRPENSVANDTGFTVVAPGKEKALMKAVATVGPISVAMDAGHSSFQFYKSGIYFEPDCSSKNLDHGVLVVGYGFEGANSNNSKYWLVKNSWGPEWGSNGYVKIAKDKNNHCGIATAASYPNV
Assay [3] addresses Cathepsin (L and K) (Homo sapiens) (UniProt P43235+P07711). Put plainly: Selectivity for human cathepsin L over human cathepsin K. It counts as protein assay.
In assay [4] the target is Cathepsin (S and K) (Homo sapiens) (UniProt P25774+P43235). Put plainly: Selectivity for human cathepsin S over human cathepsin K. The class given is protein assay.
Sequence of Cathepsin (S and K) (Homo sapiens) (P25774 whole entry, looked up, one chain of several): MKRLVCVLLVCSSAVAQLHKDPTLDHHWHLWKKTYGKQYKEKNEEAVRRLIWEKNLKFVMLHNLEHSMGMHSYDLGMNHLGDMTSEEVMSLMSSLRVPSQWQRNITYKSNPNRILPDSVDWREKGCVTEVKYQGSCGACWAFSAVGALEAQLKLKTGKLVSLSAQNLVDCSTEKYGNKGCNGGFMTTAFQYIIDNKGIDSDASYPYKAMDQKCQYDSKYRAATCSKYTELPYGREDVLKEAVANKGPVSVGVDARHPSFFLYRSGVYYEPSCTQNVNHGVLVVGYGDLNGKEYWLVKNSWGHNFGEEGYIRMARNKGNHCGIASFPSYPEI
The target in assay [5] is Cathepsin (H and K) (Homo sapiens) (UniProt P09668+P43235). Kind of assay: Selectivity for human cathepsin H over human cathepsin K. The class given is protein assay.
Sequence of Cathepsin (H and K) (Homo sapiens) (P09668 whole entry, looked up, one chain of several): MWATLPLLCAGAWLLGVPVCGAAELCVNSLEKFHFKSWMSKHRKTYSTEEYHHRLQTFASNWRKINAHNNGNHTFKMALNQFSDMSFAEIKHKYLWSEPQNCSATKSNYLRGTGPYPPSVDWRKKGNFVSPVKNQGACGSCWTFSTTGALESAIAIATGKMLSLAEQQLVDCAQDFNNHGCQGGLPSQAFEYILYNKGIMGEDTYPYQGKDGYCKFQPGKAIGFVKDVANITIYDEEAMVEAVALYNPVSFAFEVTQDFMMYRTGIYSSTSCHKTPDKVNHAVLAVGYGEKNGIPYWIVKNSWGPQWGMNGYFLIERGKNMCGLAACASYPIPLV

Sequence of Cathepsin (L and K) (Homo sapiens) (P07711 whole entry, looked up, one chain of several): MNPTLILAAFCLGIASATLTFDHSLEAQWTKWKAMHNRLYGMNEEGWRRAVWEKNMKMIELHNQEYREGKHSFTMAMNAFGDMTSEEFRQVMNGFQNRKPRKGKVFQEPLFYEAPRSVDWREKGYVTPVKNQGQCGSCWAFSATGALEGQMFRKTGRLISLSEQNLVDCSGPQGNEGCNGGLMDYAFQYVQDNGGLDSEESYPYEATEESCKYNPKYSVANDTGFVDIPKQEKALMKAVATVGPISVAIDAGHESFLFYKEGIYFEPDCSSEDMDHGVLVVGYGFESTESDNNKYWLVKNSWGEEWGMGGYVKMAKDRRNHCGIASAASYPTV

With `CCCC[C@H](NC(=O)OCC1(CC)CCC1)C(=O)C(=O)Nc1ccnn1CC1CC1`, the Selectivity in assay [1] is greater than 250; in assay [2], 102; in assay [3] it was greater than 250; in assay [4], 33; in assay [5], greater than 250. Besides, at Cathepsin K, the IC50 is 51 nM.
`CCCC[C@H](NC(=O)OCC1(CC)COC1)C(=O)C(=O)N[C@H](C)c1ccccc1` showed an IC50 at Cathepsin K of 68 nM.
Take `CCCC[C@H](NC(=O)OCC1(CC)CCC1)C(=O)C(=O)Nc1ccnn1CC(C)C`: the Selectivity in assay [1] is greater than 170; in assay [2], 89; in assay [3] it was greater than 170; in assay [4], 14; in assay [5], greater than 170. For the same molecule, the IC50 against Cathepsin K turned out to be 76 nM.
As for `CCCC[C@H](NC(=O)OCC1(CC)CCC1)C(=O)C(=O)Nc1ccnn1C1CCC1`, the Selectivity in assay [1] was greater than 280; in assay [2] it was 49; in assay [3], 270; in assay [4], 14; in assay [5], greater than 280. At Cathepsin K, this molecule registered an IC50 of 45 nM.
Turning to `CCCC[C@H](NC(=O)OCC1(CC)CCC1)C(=O)C(=O)Nc1ccon1`, the IC50 against Cathepsin K came to 20 nM.
The same measure, in the same setting: then `CCCC[C@H](NC(=O)OCC1(CC)COC1)C(=O)C(=O)Nc1cc(-c2ccccc2)n[nH]1`, with 10 nM.
